The supplement of paper PMC10331698
± gives the standard deviation of the averaged measurements.

Tests used:
Test in all cases: level (log10 ratio to DMSO vehicle control); higher = higher biomarker level / cell amount than vehicle control
Settings in all cases: in DMSO
Perfluorooctanamidine = compound: N=C(N)C(F)(F)C(F)(F)C(F)(F)C(F)(F)C(F)(F)C(F)(F)C(F)(F)F [Perfluorooctanamidine]
Description: (§1)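 BioMAP Diversity Plus panel of 12 human primary cell co-culture systems (3C, 4H, LPS, SAg, BT, BF4T, BE3C, CASM3C, HDF3CGF, KF3CT, MyoF, Mphg). Compounds were added 1 h before stimulation and left for 24 h (MyoF 48 h; BT 72 h for soluble read-outs or 6 d for IgG). Biomarkers were read by ELISA, cytotoxicity by SRB, PBMC viability and proliferation by Alamar Blue. Each well value was divided by the mean of 8 DMSO control wells on the same plate and log10 transformed; duplicate blinded samples were tested at 4 concentrations.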

Perfluorohexanoic acid = compound: O=C(O)C(F)(F)C(F)(F)C(F)(F)C(F)(F)C(F)(F)F [Perfluorohexanoic acid]
Description: as §1

[1] = compound: C=CC(=O)OCCC(F)(F)C(F)(F)C(F)(F)C(F)(F)F [2-(Perfluorobutyl)ethyl acrylate]
Description: as §1

Test System | level (log10) (Perfluorooctanamidine; 6700 nM) | level (log10) (Perfluorooctanamidine; 20000 nM) | level (log10) (Perfluorooctanamidine; 60000 nM) | level (log10) (Perfluorohexanoic acid; 6700 nM) | level (log10) (Perfluorohexanoic acid; 20000 nM) | level (log10) (Perfluorohexanoic acid; 60000 nM) | level (log10) ([1]; 6700 nM) | level (log10) ([1]; 20000 nM) | level (log10) ([1]; 60000 nM)
HDF3CGF:CD54/ICAM-1 | -0.0235 ± 0.0064 | -0.014 ± 0.013 | -0.072 | -0.009 ± 0.013 | -0.017 ± 0.013 | -0.019 ± 0.037 | -0.028 ± 0.025 | -0.035 ± 0.025 | -0.131 ± 0.059
HDF3CGF:CD106/VCAM-1 | -0.0215 ± 0.013 | -0.132 ± 0.018 | -0.214 | -0.043 ± 0.04 | -0.008 ± 0.023 | -0.0145 ± 0.086 | -0.068 ± 0.0028 | -0.203 ± 0.049 | -0.317 ± 0.041
HDF3CGF:CXCL8/IL-8 | 0.006 ± 0.0014 | 0.0135 ± 0.005 | 0.007 | -0.003 ± 0.0057 | 0.006 ± 0.0014 | 0.005 ± 0.0071 | -0.003 ± 0.011 | 0 ± 0.0028 | -0.007 ± 0.021
HDF3CGF:CXCL9/MIG | 0.0055 ± 0.023 | -0.003 ± 0.018 | 0.018 | 0.004 ± 0.0099 | 0.001 ± 0.0099 | -0.019 ± 0.034 | -0.0335 ± 0.019 | -0.176 ± 0.064 | -0.498 ± 0.071
HDF3CGF:CXCL10/IP-10 | 0.024 ± 0.014 | -0.004 ± 0.034 | -0.122 | -0.0135 ± 0.023 | -0.0215 ± 0.0035 | -0.0235 ± 0.013 | -0.0135 ± 0.029 | -0.0985 ± 0.013 | -0.281 ± 0.032
HDF3CGF:CXCL11/I-TAC | 0.024 ± 0.025 | 0.0285 ± 0.029 | -0.119 | 0.0045 ± 0.005 | 0.0005 ± 0.021 | -0.021 ± 0.031 | -0.045 ± 0.062 | -0.124 ± 0.023 | -0.317 ± 0.087
HDF3CGF:Collagen I | -0.015 ± 0.0085 | -0.025 ± 0.03 | -0.021 | -0.035 ± 0.033 | 0.02 ± 0.025 | -0.0035 ± 0.054 | -0.065 ± 0.02 | -0.0225 ± 0.042 | -0.0295 ± 0.054
HDF3CGF:Collagen III | -0.047 ± 0.018 | -0.196 ± 0.045 | -0.172 | 0.0515 ± 0.013 | 0.0305 ± 0.0092 | -0.0245 ± 0.071 | -0.005 ± 0.0014 | -0.0605 ± 0.0021 | -0.127 ± 0.03
HDF3CGF:EGFR | -0.017 ± 0.02 | 0.01 ± 0.011 | -0.013 | 0.027 ± 0.017 | 0.03 ± 0.021 | 0.003 ± 0.081 | -0.002 ± 0.016 | -0.0165 ± 0.005 | -0.0055 ± 0.021
HDF3CGF:M-CSF | -0.017 ± 0.014 | -0.0485 ± 0.018 | -0.177 | -0.015 ± 0.059 | 0.013 ± 0.021 | -0.006 ± 0.05 | -0.0445 ± 0.0092 | -0.154 ± 0.054 | -0.259 ± 0.12
HDF3CGF:MMP-1 | -0.008 ± 0.0099 | 0.012 ± 0.0085 | -0.008 | 0.0155 ± 0.036 | 0.0045 ± 0.016 | -0.0145 ± 0.043 | 0.0135 ± 0.0064 | 0.0905 ± 0.022 | 0.133 ± 0.022
HDF3CGF:PAI-I | -0.0225 ± 0.013 | 0.02 ± 0.014 | -0.233 | 0.0415 ± 0.044 | -0.0095 ± 0.021 | 0.025 ± 0.075 | -0.0135 ± 0.0035 | -0.0185 ± 0.023 | -0.016 ± 0.024
HDF3CGF:Proliferation 72hr | -0.0255 ± 0.043 | -0.0515 ± 0.1 | -0.564 | 0.04 ± 0.0014 | 0.015 ± 0.034 | 0.0305 ± 0.037 | -0.0325 ± 0.0092 | -0.124 ± 0.054 | -0.197 ± 0.041
HDF3CGF:SRB | -0.01 ± 0.017 | 0.0155 ± 0.0035 | -0.048 | 0.0135 ± 0.013 | 0.0305 ± 0.022 | -0.0055 ± 0.0092 | -0.0125 ± 0.057 | -0.092 ± 0.073 | -0.0805 ± 0.06
HDF3CGF:TIMP-1 | 0.013 ± 0.042 | 0.018 ± 0.05 | 0.092 | -0.0005 ± 0.0078 | -0.002 ± 0.016 | 0.0025 ± 0.015 | -0.0375 ± 0.033 | -0.0285 ± 0.0064 | -0.053 ± 0.03
HDF3CGF:TIMP-2 | -0.008 ± 0.027 | -0.012 ± 0.031 | -0.018 | 0.033 ± 0.0014 | 0.021 ± 0.017 | 0.025 ± 0.037 | -0.0725 ± 0.057 | -0.0805 ± 0.047 | -0.0995 ± 0.035
KF3CT:CCL2/MCP-1 | -0.0075 ± 0.0064 | 0.029 ± 0.0099 | 0.092 | -0.0155 ± 0.019 | -0.0385 ± 0.018 | 0.001 ± 0.052 | -0.036 ± 0.0099 | -0.0515 ± 0.0035 | -0.028 ± 0.086
KF3CT:CD54/ICAM-1 | 0.0055 ± 0.033 | 0.0175 ± 0.022 | 0.064 | 0.0055 ± 0.0064 | -0.002 ± 0.013 | -0.007 ± 0.011 | -0.0085 ± 0.0092 | -0.0245 ± 0.0078 | -0.054 ± 0.0099
KF3CT:CXCL8/IL-8 | 0.0135 ± 0.021 | 0.0305 ± 0.018 | 0.043 | -0.005 ± 0.014 | 0.009 ± 0.04 | 0.031 ± 0.013 | -0.0095 ± 0.021 | -0.003 ± 0.0014 | -0.0105 ± 0.018
KF3CT:CXCL9/MIG | -0.0015 ± 0.011 | -0.0005 ± 0.0092 | 0.015 | 0.0075 ± 0.0064 | 0.0035 ± 0.012 | 0.0095 ± 0.012 | -0.0035 ± 0.0021 | 0.008 ± 0.0042 | -0.0235 ± 0.015
KF3CT:CXCL10/IP-10 | 0.012 ± 0.042 | 0.0025 ± 0.04 | 0.04 | 0.0045 ± 0.0092 | 0.0045 ± 0.005 | 0.017 ± 0.0014 | -0.009 ± 0.0057 | -0.0125 ± 0.022 | -0.0285 ± 0.0078
KF3CT:IL-1alpha | -0.005 ± 0.04 | 0.0115 ± 0.011 | 0.03 | -0.0045 ± 0.011 | -0.0185 ± 0.011 | 0.008 ± 0.021 | -0.036 ± 0.0057 | -0.075 ± 0.013 | -0.059 ± 0.038
KF3CT:MMP-9 | -0.006 ± 0.0028 | -0.0275 ± 0.023 | -0.032 | -0.009 ± 0.014 | -0.0055 ± 0.0035 | 0.017 ± 0.016 | -0.01 ± 0.02 | -0.0045 ± 0.012 | -0.022 ± 0.013
KF3CT:PAI-I | -0.001 ± 0.033 | -0.017 ± 0.044 | -0.008 | -0.0075 ± 0.00071 | -0.0175 ± 0.0035 | -0.0085 ± 0.00071 | -0.017 ± 0.0071 | -0.005 ± 0.023 | -0.008 ± 0.0085
KF3CT:SRB | -0.001 ± 0.0014 | -0.004 ± 0.0014 | 0.027 | 0.0045 ± 0.0035 | -0.012 ± 0.0014 | 0.0045 ± 0.00071 | -0.01 ± 0.0028 | -0.0095 ± 0.005 | -0.0205 ± 0.013
